Article PMC12418703, “Avenanthramides and avenacosides as biomarkers of oat intake: a pharmacokinetic study of solid and liquid oat consumption under single and repeated dose conditions” (Nutrition Journal, 2025)
Read-outs that look alike come from different tables or passages of the source.

Assays:
[1] = Plasma pharmacokinetics after a single dose of liquid or solid oat product (compartmental PK model); type: in vivo, humans; design: V/F: unit not given here; settings: for Cmax / half-life / k el / Tmax: both sexes, oral; for Cmax / half-life / k el: human, plasma; for Cmax / half-life / k el / Tmax / T1/2 / ka / V/F / AUC(norm): single dose; for k el: elimination rate (Table 2), read-out: ke (converted); for Tmax: human plasma, derived from PK model; for V, population estimate (RSE%) / ka, population estimate (RSE%) / ke, population estimate (RSE%): Table S1 compartmental model; for ka: absorption rate (Table 2); for V/F: distribution volume over bioavailability; for AUC(norm): normalized for nmol intake
Text: A non-blinded, randomized two-way crossover study with two different oat products (solid or liquid) was designed to investigate the AVA and AVE PK after a single dose and after repeated dosing at three different doses, for respective food (Fig. 2). Since this is the first study of its kind, it is impossible to make any formal calculation of the number of subjects needed to show meaningful differences in plasma biomarker concentrations, since the variation is unknown. However, similar studies aimed for BFI discovery and validation of dose-response have typically used 5–30 subjects. We therefore considered 23 individuals as a good compromise between feasibility and possibilities to assess variation in biomarker concentrations, estimate pharmacokinetic parameters, dose response and performing modelling with good precision. A scientist not involved in the study, conducted the randomization using the RAR method (RandomizeR package) in R software environment and provided lists with allocated treatment sequences. The study was conducted in two phases. In the first phase, blood samples were drawn from 11 men and 12 women for 24 h after consumption of a single dose of either a solid or a liquid oat product on-site. Breakfast and lunch were also provided on-site. A single dose of solid (62 g of oat flakes) or liquid (196 mL of oat drink) containing individual AVAs and AVEs shown in Table 1 were consumed, respectively. Blood plasma samples were drawn for 24 h (0 h, 0.25 h, 0.5 h, 0.75 h, 1 h, 1.5 h, 2 h, 3 h, 4 h, 5 h, 6 h, 7 h, 8 h, 24 h). After the 24 h, at the second phase of the study, the corresponding product was further consumed three times per day for four days at either a low, medium, or high intake dose (98, 196 and 392 mL for liquid oats and 31, 62 and 123 g for oat flakes with corresponding contents of AVAs and AVEs (Table 1) in a Latin square design. Therefore, a total number of 8 participants (2 males and 6 females) were randomized to the low dose, 9 participants (3 males and 6 females) for medium dose and 6 participants (3males and 3 females) for the high dose. Participants consumed the provided products at home and were instructed to follow their habitual diets with restriction on the consumption of oat products. A list of relevant foods was provided as a guide. The oat flakes were pre-portioned into individual bags and could be consumed without heating, mixed with yoghurt, cottage cheese, sour milk or any liquid. Participants were instructed to consume the full amount, including the liquid or food the oats were mixed with. Liquid oat products were weighed prior consumption, and they were to be consumed without any additional food. In all cases the time of oat intake was recorded in a food journal. On the fifth day of phase II, a fasting sample was drawn. Fecal samples were collected at baseline and at the end of phase II of the intervention. Between each study period, there was a wash-out period of eight days where participants consumed their habitual diet. After the washout, participants started with a single dose and repeated dosing for the other product in the same way as for the first. The participants were instructed to avoid foods containing oats during the last three days prior to the start of the study and during the last three days of the wash-out period. Compliance was assessed based on information provided in a compliance journal during the study weeks as well as through 2-day food records. The oat products used in the study were provided to the participants. The flakes for the single dose were consumed with water ad lib and for the repeated dose they could be mixed with water, yoghurt, milk, sour milk or cottage cheese with the condition that all the amount of the oat product is consumed. The oat drink was consumed without any other product.
All blood samples were collected into EDTA-coated tubes by a trained nurse. […]

[2] = test system: Feacalibacterium prausnitzii; assay: Association of F. prausnitzii relative abundance at baseline with Cmax and AUC strata (logistic regression); design: species or system humans; settings: liquid, solid, or combined; single dose phase I
Protocol: DNA was extracted from approximately 35 mg of each of the 451 fecal samples using the NucleoSpin Soil kit (Macherey-Nagel, 740780.250 M), following the manufacturer’s instructions. DNA yield was quantified using the Qubit 1X dsDNA Broad Range assay kit (Thermo Fisher Scientific, Q33266). For metagenomic shotgun sequencing, libraries were prepared with the MGIEasy Fast FS DNA Library Prep Set (MGI Tech Co., Ltd., 940-000030-00, Werheim, Germany), using 400 ng of DNA per sample. The library preparation process included DNA shearing for 12.5 min, followed by end repair, A-tailing, and magnetic bead-based cleanup. Adapter ligation and cleanup were then performed, followed by PCR amplification and magnetic bead-based size selection of the final library product. Library quality was assessed using the Qubit 1X dsDNA HS Assay Kit (Thermo Fisher Scientific, Q33231) and the Agilent High Sensitivity D1000 Assay Kit (Agilent Technologies, 5067–5584 and 5067–5585, Santa Clara, CA, USA). Pooled libraries were circularized, barcoded, and used as templates for DNA nanoball preparation. The nanoballs were then analyzed on the DNBSEQ-T7 platform (MGI Tech Co., Ltd.) using the DNBSEQ-T7RS High-throughput Sequencing Set (FCL PE150), according to the manufacturer’s guidelines.
Raw metagenomic reads underwent quality control to remove low-quality sequences, adapters, and contaminants using Fastp (version 0.23.2, default parameters). High-quality reads were filtered to exclude human reads (GRCh38_noalt_as) using Bowtie2 [38] (version 2.5.3). The quality-filtered reads were then aligned to the taxonomy database using MetaPhlAn (version 4.0.6, default parameters) to generate relative abundance profiles. For inclusion in the analysis, a species was required to be present in at least three samples.
For the seven metabolites AVE A, AVE B, AVA 2c, AVA 2f, AVA 2fd, AVA 2p, AVA 2pd analysed at phase I after the single dose of oat products, Cmax and area under the curve (AUC) were stratified based on less than the median or more or equal to the […]. Thereafter, for each metabolite, it was investigated whether the relative abundance of F. prausnitzii at baseline could predict the strata since this bacterium has previously been reported to be responsible for production of their dihydro-metabolites. Logistic regression with a binomial distribution and a logistic link function was used to separately analyze the liquid and solid products. When analyzing liquid and solid products together, a generalized linear mixed model with a binomial distribution and a logistic link function was used, with identity included as a random factor.

[3] = 62 g of oat flakes, solid oat product (62 g oat flakes)
[4] = 196 mL of oat drink, liquid oat product (196 mL oat drink)

SMILES | Cmax ([1]; 62 g of oat flakes, solid) | half-life ([1]; 62 g of oat flakes, solid) | k el ([1]; 62 g of oat flakes, solid) | Cmax ([1]; 196 mL of oat drink, liquid) | half-life ([1]; 196 mL of oat drink, liquid) | k el ([1]; 196 mL of oat drink, liquid) | Tmax [1, 3] | Tmax [1, 4] | V, population estimate (RSE%) ([1]; liquid) | ka, population estimate (RSE%) ([1]; liquid) | ke, population estimate (RSE%) ([1]; liquid) | T1/2 ([1]; liquid) | ka ([1]; liquid) | V/F ([1]; liquid) | V, population estimate (RSE%) ([1]; solid) | ka, population estimate (RSE%) ([1]; solid) | ke, population estimate (RSE%) ([1]; solid) | ka ([1]; solid) | V/F ([1]; solid) | association between F. prausnitzii abundance at baseline and Cmax and AUC [2] | also measured
CC1OC(OC2C(OC3CCC4(C)C(=CCC5C4CCC4(C)C5CC5OC6(CCC(C)(COC7OC(CO)C(O)C(O)C7O)O6)C(C)C54)C3)OC(CO)C(OC3OC(CO)C(O)C(OC4OC(CO)C(O)C(O)C4O)C3O)C2O)C(O)C(O)C1O (centres unmarked) [AVE B, Avenacoside B] | 0.64 ± 0.07 nM | 3.76 ± 0.29 h | 5e-05 s⁻¹ | 0.44 ± 0.05 nM | 2.5 h | 7.5e-05 s⁻¹ | 3.29 ± 0.14 h | 2.98 ± 0.13 h | 2200 (3) L | 0.41 (9) 1/h | 0.27 (3) 1/h | 2.56 ± 0.20^2 h | 0.41 ± 0.02 h⁻¹ | 2079 ± 212 | 2600 (21) L | 0.45 (22) 1/h | 0.19 (20) 1/h | 0.46 ± 0.03 h⁻¹ | 2606 ± 266 |  | AUC(norm) ([1]; liquid): 1.8 ± 0.2 nM·h; AUC(norm) ([1]; solid): 2.1 ± 0.3 nM·h
CC1OC(OC2C(OC3CCC4(C)C(=CCC5C4CCC4(C)C5CC5OC6(CCC(C)(COC7OC(CO)C(O)C(O)C7O)O6)C(C)C54)C3)OC(CO)C(OC3OC(CO)C(O)C(O)C3O)C2O)C(O)C(O)C1O (centres unmarked) [AVE A, Avenacoside A] | 2.03 ± 0.22 nM | 3.32 ± 0.26 h | 5.83e-05 s⁻¹ | 1.31 ± 0.14 nM | 3.2 h | 6.39e-05 s⁻¹ | 1.78 ± 0.08 h | 2.51 ± 0.11 h | 5900 (3) L | 1.4 (3) 1/h | 0.21 (10) 1/h | 3.17 ± 0.24 h | 1.4 ± 0.1^1 1/h | 6718 ± 686^2 | 9700 (2) L | 2.7 (8) 1/h | 0.22 (6) 1/h | 2.3 ± 0.13 h⁻¹ | 11,055 ± 1130 |  | 
O=C(/C=C/C=C/c1ccc(O)cc1)Nc1ccc(O)cc1C(=O)O [AVA 2pd] | 16.8 ± 1.78 nM | 2.63 ± 0.2 h | 7.22e-05 s⁻¹ | 3.1 ± 0.31 nM | 2.5 h | 7.78e-05 s⁻¹ | 2.31 ± 0.1 h | 1.6 ± 0.07 h | 130 (16) L | 2.4 (9) 1/h | 0.30 (13) 1/h | 2.45 ± 0.19 h | 2.40 ± 0.1^1 1/h | 131 ± 13^2 | 190 (22) L | 1.5 (10) 1/h | 0.27 (17) 1/h | 1.48 ± 0.10 h⁻¹ | 189 ± 19 | no significant associations | 
COc1cc(/C=C/C=C/C(=O)Nc2ccc(O)cc2C(=O)O)ccc1O [AVA 2fd] | 7.34 ± 0.78 nM | 1.65 ± 0.13 h | 0.000117 s⁻¹ | 2.46 ± 0.25 nM | 1.3 h | 0.000144 s⁻¹ | 1.53 ± 0.07 h | 1.01 ± 0.04 h | 210 (13) L | 3.6 (10) 1/h | 0.52 (14) 1/h | 1.33 ± 0.10 h | 3.6 ± 0.2^1 1/h | 211 ± 21^2 | 320 (22) L | 2.2 (10) 1/h | 0.42 (17) 1/h | 2.2 ± 0.12 h⁻¹ | 314 ± 32 | no significant associations | 
